The values below come from patent US7833967B2, “Synthetic antimicrobial polypeptides” (priority 2003, dated 2010).

For one experiment, the system named is E. coli TOP10. The experiment is described as follows: Suicide expression system (SES) growth inhibition. Type of experiment: cell-based. The conditions noted are these: Table 1; 0.1% inducer (arabinose), pBAD/gIIIA in E. coli TOP10, Bioscreen C 37° C., end point OD450 vs control vector.
Take “9 (RRRPPFRPPFRPPFRPPFRPPFRPPFR; Synthetic antimicrobial peptide) [compound 9]”: the “Growth inhibition (%)” value stood at 67%.

As to “11 (RRRFRPPFRPPFRPPFRPPFRPPFRPP; Synthetic antimicrobial peptide) [compound 11]”, the “Growth inhibition (%)” value was 73%.

With “4 (RRRFPPRFPPRFPPRFPPRFPPRFPPR; Synthetic antimicrobial peptide) [compound 4]”, the “Growth inhibition (%)” value is listed as 46%.

Staying with this experiment, now noted: Table 2; variants of SEQ ID NO:1, re-tested in the Bioscreen C.
In the case of “20 (RRRPPRLPPRFPPRFPPRVPPRFPPRV; Synthetic antimicrobial peptide) [compound 20]”, the “Growth inhibition (%)” value is 86%.

Regarding “21 (RRRPPRLPPRFPPRFPPRVPPRFPPRV; Synthetic antimicrobial peptide) [compound 21]”, the “Growth inhibition (%)” value is 86%.

With “17 (RRRPPRIPPRLPPRIPPRFPPRFPPRL; Synthetic antimicrobial peptide) [compound 17]”, the “Growth inhibition (%)” value turned out to be 95%.

On to “13 (RRRPPRFPPRFPPRFPPRFPPRFPPRF; Synthetic antimicrobial peptide) [compound 13]”, for which the “Growth inhibition (%)” value is listed as 51%.

Still in this experiment, the particulars now being: Table 3; variants of SEQ ID NO:5, re-tested in the Bioscreen C.
Take “51 (RRRPRPFPRPVPRPFPRPFPRPFPRPF; Synthetic antimicrobial peptide) [compound 51]”: the “Growth inhibition (%)” value worked out at 77%.

For the substance “58 (RRRPRPIPRPFPRPIPRPVPRPFPRPF; Synthetic antimicrobial peptide) [compound 58]”, the “Growth inhibition (%)” value is 77%.

“62 (RRRPRPIPRPIPRPFPRPFPRPFHAQSNCSRTKTHLRRGSE; Synthetic antimicrobial peptide) [compound 62]”: the “Growth inhibition (%)” value was found to be 77%.

As to “49 (RRRPRPFPRPLPRPVPRPFPRPVPRPL; Synthetic antimicrobial peptide) [compound 49]”, the “Growth inhibition (%)” value worked out at 51%.

On to “37 (RRRPRPFPRPFPRPFPRPIPRPFPRPV; Synthetic antimicrobial peptide) [compound 37]”, for which the “Growth inhibition (%)” value is listed as 68%.

The same experiment, now with this note: Table 4; variants of SEQ ID NO:10, re-tested in the Bioscreen C.
Regarding “132 (RRRPFRPPFRPPLRPPVRPPVRPPIRP; Synthetic antimicrobial peptide) [compound 132]”, the “Growth inhibition (%)” value came out at 72%.

As to “114 (RRRPLRPPLRPPFRPPLRPPFRPPFRP; Synthetic antimicrobial peptide) [compound 114]”, the “Growth inhibition (%)” value worked out at 74%.

Take “77 (RRRPFRPPFRPPIRPPVRPPFRPPFRP; Synthetic antimicrobial peptide) [compound 77]”: the “Growth inhibition (%)” value stood at 72%.

Regarding “178 (RRRPLRPPFRPPVRPPFRPPFRPPFRP; Synthetic antimicrobial peptide) [compound 178]”, the “Growth inhibition (%)” value stood at 81%.

Take “199 (RRRPLRPPIRPPFRPPVRPPFRPPFRP; Synthetic antimicrobial peptide) [compound 199]”: the “Growth inhibition (%)” value was found to be 80%.

On to “161 (RRRPFRPPVRPPIRPPVRPPFRPPFRP; Synthetic antimicrobial peptide) [compound 161]”, for which the “Growth inhibition (%)” value is 78%.

In the case of “82 (RRRPIRPPFRPPVRPPFRPPFRPPFRP; Synthetic antimicrobial peptide) [compound 82]”, the “Growth inhibition (%)” value is listed as 71%.

Regarding “154 (RRRPFRPPFRPPVRPPVRPPFRPPFRP; Synthetic antimicrobial peptide) [compound 154]”, the “Growth inhibition (%)” value worked out at 75%.

With “169 (RRRPIRPPLRPPVRPPFRPPVRPPFRP; Synthetic antimicrobial peptide) [compound 169]”, the “Growth inhibition (%)” value was found to be 67%.

As to “193 (RRRPFRPPIRPPFRPPIRPPFRPPFRP; Synthetic antimicrobial peptide) [compound 193]”, the “Growth inhibition (%)” value was 81%.

As to “122 (RRRPFRPPFRPPFRPPVRPPFRPPLRP; Synthetic antimicrobial peptide) [compound 122]”, the “Growth inhibition (%)” value was found to be 64%.

As to “125 (RRRPIRPPFRPPLRPPFRPPVRPPVRP; Synthetic antimicrobial peptide) [compound 125]”, the “Growth inhibition (%)” value worked out at 73%.

With “110 (RRRPFRPPLRPPFRPPIRPPIRPPVRP; Synthetic antimicrobial peptide) [compound 110]”, the “Growth inhibition (%)” value came out at 73%.

For the substance “64 (RRRPFRPPFRPPFRPPFRPPFRPPFRP; Synthetic antimicrobial peptide) [compound 64]”, the “Growth inhibition (%)” value is 82%.

As for “124 (RRRPFRPPIRPPLRPPVRPPLRPPFRP; Synthetic antimicrobial peptide) [compound 124]”, the “Growth inhibition (%)” value came out at 73%.

Take “150 (RRRPIRPPIRPPFRPPIRPPFRPPVRP; Synthetic antimicrobial peptide) [compound 150]”: the “Growth inhibition (%)” value came out at 68%.

As for “189 (RRRPFRPPFRPPIRPPVRPPIRPPFRP; Synthetic antimicrobial peptide) [compound 189]”, the “Growth inhibition (%)” value was found to be 79%.

As for “167 (RRRPFRPPLRPPFRPPLRPPLRPPVRP; Synthetic antimicrobial peptide) [compound 167]”, the “Growth inhibition (%)” value came to 58%.

For the substance “107 (RRRPFRPPFRPPVRPPFRPPIRPPFRP; Synthetic antimicrobial peptide) [compound 107]”, the “Growth inhibition (%)” value stood at 69%.

Take “66 (RRRPFRPPFRPPFRPPIRPPLRPPIRP; Synthetic antimicrobial peptide) [compound 66]”: the “Growth inhibition (%)” value came out at 76%.

As to “164 (RRRPFRPPIRPPLRPPFRPPFRPPFRP; Synthetic antimicrobial peptide) [compound 164]”, the “Growth inhibition (%)” value turned out to be 78%.

For the substance “151 (RRRPLRPPVRPPLRPPVRPPFRPPFRP; Synthetic antimicrobial peptide) [compound 151]”, the “Growth inhibition (%)” value is given as 68%.

“115 (RRRPLRPPFRPPIRPPFRPPFRPPFRP; Synthetic antimicrobial peptide) [compound 115]”: the “Growth inhibition (%)” value is given as 79%.

In the case of “162 (RRRPFRPPIRPPFRPPFRPPLRPPLRP; Synthetic antimicrobial peptide) [compound 162]”, the “Growth inhibition (%)” value was found to be 68%.

Regarding “168 (RRRPLRPPFRPPIRPPVRPPLRPPFRP; Synthetic antimicrobial peptide) [compound 168]”, the “Growth inhibition (%)” value turned out to be 71%.

Take “111 (RRRPLRPPVRPPFRPPVRPPLRPPFRP; Synthetic antimicrobial peptide) [compound 111]”: the “Growth inhibition (%)” value is given as 59%.

With “84 (RRRPIRPPLRPPIRPPFRPPFRPPLRP; Synthetic antimicrobial peptide) [compound 84]”, the “Growth inhibition (%)” value turned out to be 80%.

As to “204 (RRRPLRPPLRPPFRPPIRPPFRPPFRP; Synthetic antimicrobial peptide) [compound 204]”, the “Growth inhibition (%)” value was 76%.

On to “116 (RRRPIRPPFRPPFRPPVRPPIRPPFRP; Synthetic antimicrobial peptide) [compound 116]”, for which the “Growth inhibition (%)” value amounted to 69%.

Still in this experiment, the particulars now being: Table 5; mixed-motif library, re-tested in the Bioscreen C.
As to “246 (RRRPPRLPRPFPVRPPPRVPRPFPVRP; Synthetic antimicrobial peptide) [compound 246]”, the “Growth inhibition (%)” value is given as 95%.

For the substance “284 (RRRPPRLPRPLPVRPPPRFPRPVPVRP; Synthetic antimicrobial peptide) [compound 284]”, the “Growth inhibition (%)” value is given as 89%.

As to “301 (RRRPPRLPRPVPIRPPPRVPRPVPLRP; Synthetic antimicrobial peptide) [compound 301]”, the “Growth inhibition (%)” value is on record as 92%.

In the case of “214 (RRRPPRLPRPFPFRPPPRLPRPIPLRP; Synthetic antimicrobial peptide) [compound 214]”, the “Growth inhibition (%)” value turned out to be 95%.

On to “232 (RRRPPRLPRPFPLRPPPRLPRPIPVRP; Synthetic antimicrobial peptide) [compound 232]”, for which the “Growth inhibition (%)” value worked out at 92%.

“248 (RRRPPRLPRPFPVRPPPRVPRPVPIRP; Synthetic antimicrobial peptide) [compound 248]”: the “Growth inhibition (%)” value came to 94%.

Consider “291 (RRRPPRLPRPLPVRPPPRVPRPVPFRP; Synthetic antimicrobial peptide) [compound 291]”, for which the “Growth inhibition (%)” value is listed as 90%.

Turning to “216 (RRRPPRLPRPFPFRPPPRPRPLPVRP; Synthetic antimicrobial peptide) [compound 216]”, the “Growth inhibition (%)” value is listed as 95%.

For “277 (RRRPPRLPRPLPIRPPPRVPRPFPIRP; Synthetic antimicrobial peptide) [compound 277]”, the “Growth inhibition (%)” value came to 91%.

For “299 (RRRPPRLPRPVPIRPPPRFPRPIPFRP; Synthetic antimicrobial peptide) [compound 299]”, the “Growth inhibition (%)” value is 96%.

For the substance “243 (RRRPPRLPRPFPVRPPPRLPRPVPFRP; Synthetic antimicrobial peptide) [compound 243]”, the “Growth inhibition (%)” value amounted to 91%.

Consider “294 (RRRPPRLPRPVPFRPPPRFPRPVPLRP; Synthetic antimicrobial peptide) [compound 294]”, for which the “Growth inhibition (%)” value stood at 95%.

For “254 (RRRPPRLPRPIPFRPPPRVPRPFPIRP; Synthetic antimicrobial peptide) [compound 254]”, the “Growth inhibition (%)” value amounted to 77%.

“297 (RRRPPRLPRPVPFRPPPRVPRPIPVRP; Synthetic antimicrobial peptide) [compound 297]”: the “Growth inhibition (%)” value stood at 90%.

Consider “275 (RRRPPRLPRPLPIRPPPRLPRPFPVRP; Synthetic antimicrobial peptide) [compound 275]”, for which the “Growth inhibition (%)” value stood at 92%.

For “298 (RRRPPRLPRPVPFRPPPRVPRPVPLRP; Synthetic antimicrobial peptide) [compound 298]”, the “Growth inhibition (%)” value was found to be 92%.

Take “224 (RRRPPRLPRPFPIRPPPRVPRPFPVRP; Synthetic antimicrobial peptide) [compound 224]”: the “Growth inhibition (%)” value was found to be 93%.

As for “319 (RRRPPRVPRPFPVRPPPRVPRPIPFVHNCSRTKTHLRRGSE; Synthetic antimicrobial peptide) [compound 319]”, the “Growth inhibition (%)” value is on record as 93%.
